Data as given in patent EP4624471A1, “PKMYT1 INHIBITOR, PREPARATION METHOD THEREFOR, AND PHARMACEUTICAL COMPOSITION AND USE THEREOF” (Shanghai Qilu Pharmaceutical Research and Development …, priority 2022, dated 2024).
Read-outs that look alike come from different tables or passages of the source.

Target: T1, PKMYT1 enzyme (Homo sapiens, UniProt Q99640)
T1 construct: purchased Thermo Scientific A33387
T1 sequence (Q99640 1-499): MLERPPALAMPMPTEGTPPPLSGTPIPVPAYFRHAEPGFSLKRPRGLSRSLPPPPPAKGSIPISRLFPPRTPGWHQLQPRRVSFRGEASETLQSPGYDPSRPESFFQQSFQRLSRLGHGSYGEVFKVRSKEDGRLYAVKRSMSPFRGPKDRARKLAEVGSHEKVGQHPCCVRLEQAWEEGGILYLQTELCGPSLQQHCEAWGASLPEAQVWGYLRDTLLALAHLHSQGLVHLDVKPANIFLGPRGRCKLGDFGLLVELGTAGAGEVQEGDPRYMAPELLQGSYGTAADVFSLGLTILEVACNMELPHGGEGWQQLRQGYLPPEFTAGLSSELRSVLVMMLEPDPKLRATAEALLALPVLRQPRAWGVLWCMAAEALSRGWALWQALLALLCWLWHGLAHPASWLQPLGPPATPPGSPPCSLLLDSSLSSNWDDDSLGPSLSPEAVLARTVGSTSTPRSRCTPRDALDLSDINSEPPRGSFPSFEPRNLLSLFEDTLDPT
Assay: PKMYT1 enzyme inhibition activity, ADP-GLO method
Format: biochemical

[1] = PKMYT1 enzyme 10 nM, ATP 5 µM, 37°C 90 minutes; read-out: ADP-GLO IC50
[2] = read-out: ADP-GLO IC50; PKMYT1 enzyme 10 nM, ATP 5 µM, 37°C 90 minutes

IC50 [2] [nM]	Compound	IC50 [1] [nM]
	Cc1ccc(O)c(C)c1-n1c(N)c(C(N)=O)c2cnc(N3CCCCC3)nc21 [Example 13, 6-Amino-7-(3-hydroxy-2,6-dimethylphenyl)-2-(piperidin-1-yl)-7H-pyrrolo[2,3-d]pyrimidine-5-carboxamide]	12.2
	Cc1cc2c(C(N)=O)c(N)n(-c3c(C)c(O)c(Cl)c(F)c3C)c2nc1C [Example 44, 2-Amino-1-(4-chloro-3-fluoro-5-hydroxy-2,6-dimethylphenyl)-5,6-dimethyl-1H-pyrrolo[2,3-b]pyridine-3-carboxamide]	11.8
	Cc1ccc(O)c(C)c1-n1c(N)c(C(N)=O)c2cc(NC(=O)Nc3ccccc3)c(C)nc21 [Example 91]	41.7
	Cc1ccc(O)c(C)c1-n1c(N)c(C(N)=O)c2cnc(C3CCC(F)(F)CC3)nc21 [Example 88]	16
	Cc1ccc(O)c(C)c1-n1c(N)c(C(N)=O)c2cnc(C3CCCCC3)nc21 [Example 10, 6-Amino-2-cyclohexyl-7-(3-hydroxy-2,6-dimethylphenyl)-7H-pyrrolo[2,3-d]pyrimidine-5-carboxamide]	13
	Cc1cc(F)c(O)c(C)c1-n1c(N)c(C(N)=O)c2c3cnccc3c(C)cc21 [Example 207]	4.08
9.55	Cc1nc(C)c2c(C(N)=O)c(N)n(-c3c(C)ccc(O)c3C)c2n1 (atropisomer, axis not shown) [Example 19.2]	
	[2H]C([2H])([2H])c1c(O)c(F)cc(C)c1-n1c(N)c(C(N)=O)c2cc(C(F)(F)F)c(C)nc21 (racemic) [Example 195]	4.6
	Cc1c(O)cc(F)c(C)c1-n1c(N)c(C(N)=O)c2c(C)c3c(nc21)CCC3 [Example 182]	85.7
	Cc1ccc(O)c(C)c1-n1c(N)c(C(N)=O)c2cnc(NC3CCCC3)nc21 [Example 76]	4.02
	CCc1nc(C)nc2c1c(C(N)=O)c(N)n2-c1c(C)ccc(O)c1C (atropisomer, axis not shown) [Example 66.1]	16.5
	CCc1ccc(O)c(C)c1-n1c(N)c(C(N)=O)c2cnc(C)nc21 [Example 68]	299
	Cc1ccc(O)c(C)c1-n1c(N)c(C(N)=O)c2cnc(N3CCC(F)(F)CC3)nc21 [Example 37, 6-Amino-2-(4,4-difluoropiperidin-1-yl)-7-(3-hydroxy-2,6-dimethylphenyl)-7H-pyrrolo[2,3-d]pyrimidine-5-carboxamide]	3.09
	Cc1cc2c(C(N)=O)c(N)n(-c3c(C)ccc(O)c3C)c2nc1N [Example 95]	9.47
	Cc1cc(F)c(O)c(C)c1-n1c(N)c(C(N)=O)c2cc(C(F)F)c(C)nc21 [Example 204]	18.9
	Cc1ccc(O)c(C)c1-n1c(N)c(C(N)=O)c2cnc(N3CCOCC3)nc21 [Example 34, 6-Amino-7-(3-hydroxy-2,6-dimethylphenyl)-2-morpholino-7H-pyrrolo[2,3-d]pyrimidine-5-carboxamide]	25.7
	Cc1ccc(O)c(C)c1-n1c(N)c(C(N)=O)c2cnc(C#CC3CC3)nc21 [Example 12, 6-Amino-2-(cyclopropylethynyl)-7-(3-hydroxy-2,6-dimethylphenyl)-7H-pyrrolo[2,3-d]pyrimidine-5-carboxamide]	6.58
	Cc1cc(F)c(O)c(C)c1-n1c(N)c(C(N)=O)c2cc3c(nc21)CCO3 [Example 184]	88.8
	Cc1cc(F)c(O)c(C)c1-n1c(N)c(C(N)=O)c2cc(C3=CCOCC3)c(C)nc21 [Example 165]	33.4

IC50 [2] [nM]	Compound	IC50 [1] [nM]
	Cc1cc2c(C(N)=O)c(N)n(-c3c(C)c(O)cc(F)c3C)c2nc1C(C)C [Example 139]	143
	Cc1c(O)cc(F)c(C)c1-n1c(N)c(C(N)=O)c2cc(F)cnc21 [Example 82]	5.43
	Cc1ccc(O)c(C)c1-n1c(N)c(C(N)=O)c2cnc(N)nc21 [Example 40, 2,6-Diamino-7-(3-hydroxy-2,6-dimethylphenyl)-7H-pyrrolo[2,3-d]pyrimidine-5-carboxamide]	23.6
15.6	COc1nc(C)nc2c1c(C(N)=O)c(N)n2-c1c(C)ccc(O)c1C [Example 69]	
	Cc1cc(F)c(O)c(C)c1-n1c(N)c(C(N)=O)c2c3c(cnc21)CCC3 (racemic) [Example 186]	7.41
	Cc1ccc(O)c(C)c1-n1c(N)c(C(N)=O)c2cnc(NCC(F)F)nc21 [Example 77]	20.2
	[2H]C([2H])([2H])c1c(O)c(F)cc(C)c1-n1c(N)c(C(N)=O)c2cc(C(F)(F)F)c(C)nc21 (atropisomer, axis not shown) [Example 195.1]	2.8
	Cc1cc(F)c(O)c(C)c1-n1c(N)c(C(N)=O)c2cc(C(C)C)cnc21 (racemic) [Example 170]	18.1
	Cc1cc2c(C(N)=O)c(N)n(-c3c(C)cc(F)c(O)c3C)c2nc1F [Example 73]	13.4
	Cc1ccc(O)c(C)c1-n1c(N)c(C(N)=O)c2cc3c(nc21)OCCO3 (racemic) [Example 188]	10.5
	Cc1ccc(O)c(C)c1-n1c(N)c(C(N)=O)c2cnc(C#CC(C)(C)F)nc21 [Example 27]	7.15
	COc1cnc2c(c1)c(C(N)=O)c(N)n2-c1c(C)cc(F)c(O)c1C [Example 149]	12.6
	C=C(C)c1nc2c(cc1C)c(C(N)=O)c(N)n2-c1c(C)cc(F)c(O)c1C [Example 152]	47.9
	Cc1cc2c(C(N)=O)c(N)n(-c3c(C)c(O)cc(F)c3C)c2nc1-c1ccccc1 [Example 137]	36.2
	COc1c(O)ccc(C)c1-n1c(N)c(C(N)=O)c2cc(C)c(C)nc21 [Example 94]	408
	[2H]C([2H])([2H])c1cc(F)c(O)c(C([2H])([2H])[2H])c1-n1c(N)c(C(N)=O)c2cc(C(F)(F)F)c(C)nc21 [Example 193]	7.94
	Cc1cc(F)c(O)c(C)c1-n1c(N)c(C(N)=O)c2cc(C3CCOCC3)c(C)nc21 (atropisomer, axis not shown) [Example 163.1]	5.7
	Cc1cc(F)c(O)c(C)c1-n1c(N)c(C(N)=O)c2cc(C(F)(F)F)cnc21 (atropisomer, axis not shown) [Example 154.2]	5.1
	Cc1cc(F)c(O)c(C)c1-n1c(N)c(C(N)=O)c2cc(Cl)c(C)nc21 (atropisomer, axis not shown) [Example 60.2]	1.88

IC50 [2] [nM]	Compound	IC50 [1] [nM]
	C=Cc1cnc2c(c1)c(C(N)=O)c(N)n2-c1c(C)cc(F)c(O)c1C [Example 148]	7.32
	Cc1ccc(O)c(C)c1-n1c(N)c(C(N)=O)c2cnc(C#CC(C)(C)O)nc21 [Example 26, 6-Amino-7-(3-hydroxy-2,6-dimethylphenyl)-2-(3-hydroxy-3-methylbut-1-yn-1-yl)-7H-pyrrolo[2,3-d]pyrimidine-5-carboxamide]	11.3
	CCc1ccc(O)c(CC)c1-n1c(N)c(C(N)=O)c2cnc(C)nc21 [Example 32, 6-Amino-7-(2,6-diethyl-3-hydroxyphenyl)-2-methyl-7H-pyrrolo[2,3-d]pyrimidine-5-carboxamide]	263
	Cc1cc(F)c(O)c(C)c1-n1c(N)c(C(N)=O)c2cc3c(nc21)CCC3 [Example 183]	33.8
	Cc1cc(F)c(O)c(C)c1-n1c(N)c(C(N)=O)c2cc3c(nc21)CCCC3 (racemic) [Example 177]	34.7
	Cc1ccc(O)c(C)c1-n1c(N)c(C(N)=O)c2cnc(Nc3ccccc3)nc21 [Example 33, 6-Amino-7-(3-hydroxy-2,6-dimethylphenyl)-2-(phenylamino)-7H-pyrrolo[2,3-d]pyrimidine-5-carboxamide]	11.3
	Cc1cc(F)c(O)c(C)c1-n1c(N)c(C(N)=O)c2cc3ccccc3nc21 [Example 180]	30.5
	Cc1ccc(O)c(C)c1-n1c(N)c(C(N)=O)c2cnc(N(C)C)nc21 [Example 36, 6-Amino-2-(dimethylamino)-7-(3-hydroxy-2,6-dimethylphenyl)-7H-pyrrolo[2,3-d]pyrimidine-5-carboxamide]	17.4
	Cc1c(O)cc(F)c(C)c1-n1c(N)c(C(N)=O)c2c3cnccc3c(C)cc21 [Example 208]	4.52
	Cc1ncc2c(C(N)=O)c(N)n(-c3c(C)c(O)cc(F)c3C)c2c1F (atropisomer, axis not shown) [Example 71.1]	4.29
	Cc1cc(F)c(O)c(C)c1-n1c(N)c(C(N)=O)c2c3c(cnc21)CCC3 (atropisomer, axis not shown) [Example 186.2]	3.91
	Cc1cc2c(C(N)=O)c(N)n(-c3c(C)c(O)cc(F)c3C)c2nc1C (atropisomer, axis not shown) [Example 22]	85.5
	Cc1ncc2c(C(N)=O)c(N)n(-c3c(C)c(O)cc(F)c3C)c2c1F (racemic) [Example 71]	7.99
	COC(C)(C)c1cnc2c(c1)c(C(N)=O)c(N)n2-c1c(C)cc(F)c(O)c1C [Example 146]	35.2
	[2H]C([2H])([2H])c1nc2c(cc1C(F)(F)F)c(C(N)=O)c(N)n2-c1c(C)cc(F)c(O)c1C (racemic) [Example 194]	6.36
	Cc1cc2c(C(N)=O)c(N)n(-c3c(C)c(O)cc(F)c3C)c2c(F)c1C [Example 70]	34
	Cc1cc2c(C(N)=O)c(N)n(-c3c(C)cnc(O)c3C)c2nc1C [Example 50, 2-Amino-1-(2-hydroxy-3,5-dimethylpyridin-4-yl)-5,6-dimethyl-1H-pyrrolo[2,3-b]pyridine-3-carboxamide]	220
	Cc1ncc2c(C(N)=O)c(N)n(-c3c(C)cc(F)c(O)c3C)c2n1 [Example 65]	23.8
